Consider two molecules from article PMC9927415, “Tyrosine Kinase Inhibitors Display Potent Activity against Cryptosporidium parvum” (Microbiology Spectrum, 2022).

Common to all, as to test: KINOMEscan competitive binding
The target in one assay is T1, SRC (Homo sapiens, UniProt P12931).
T1 construct: purchased DiscoverX (KINOMEscan)
The note with it: n=1, read-out: Percent inhibition, SRC.

The target of another assay is T2, TNK2 (Homo sapiens, UniProt Q07912).
T2 construct: purchased DiscoverX (KINOMEscan)
The conditions noted are these: n=1, read-out: Percent inhibition, TNK2.

A further assay addresses T3, PAK6 (Homo sapiens, UniProt Q9NQU5).
T3 construct: purchased DiscoverX (KINOMEscan)
The note with it: n=1, read-out: Percent inhibition, PAK6.

Another assay deals with T4, PLK3 (Homo sapiens, UniProt Q9H4B4).
T4 construct: purchased DiscoverX (KINOMEscan)
The conditions noted are these: n=1, read-out: Percent inhibition, PLK3.

A further assay addresses T5, TXK (Homo sapiens, UniProt P42681).
T5 construct: purchased DiscoverX (KINOMEscan)
T5 sequence (P42681 1-527): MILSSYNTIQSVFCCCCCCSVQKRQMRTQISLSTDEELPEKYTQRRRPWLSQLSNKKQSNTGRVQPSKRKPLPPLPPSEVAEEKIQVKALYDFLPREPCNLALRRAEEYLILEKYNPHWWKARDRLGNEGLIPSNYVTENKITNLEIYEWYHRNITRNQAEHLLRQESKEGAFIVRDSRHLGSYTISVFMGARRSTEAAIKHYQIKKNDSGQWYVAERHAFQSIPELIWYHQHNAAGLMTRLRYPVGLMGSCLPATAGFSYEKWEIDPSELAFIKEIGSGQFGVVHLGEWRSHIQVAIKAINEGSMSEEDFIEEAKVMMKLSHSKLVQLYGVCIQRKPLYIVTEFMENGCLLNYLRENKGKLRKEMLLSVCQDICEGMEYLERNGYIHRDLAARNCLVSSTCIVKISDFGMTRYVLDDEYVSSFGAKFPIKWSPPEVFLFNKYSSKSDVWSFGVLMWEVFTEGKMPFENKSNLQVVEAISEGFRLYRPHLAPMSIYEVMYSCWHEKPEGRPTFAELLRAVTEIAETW
The note with it: n=1, read-out: Percent inhibition, TXK.

Another assay has as its target T6, ZAP70 (Homo sapiens, UniProt P43403).
T6 construct: purchased DiscoverX (KINOMEscan)
T6 sequence (P43403 1-619): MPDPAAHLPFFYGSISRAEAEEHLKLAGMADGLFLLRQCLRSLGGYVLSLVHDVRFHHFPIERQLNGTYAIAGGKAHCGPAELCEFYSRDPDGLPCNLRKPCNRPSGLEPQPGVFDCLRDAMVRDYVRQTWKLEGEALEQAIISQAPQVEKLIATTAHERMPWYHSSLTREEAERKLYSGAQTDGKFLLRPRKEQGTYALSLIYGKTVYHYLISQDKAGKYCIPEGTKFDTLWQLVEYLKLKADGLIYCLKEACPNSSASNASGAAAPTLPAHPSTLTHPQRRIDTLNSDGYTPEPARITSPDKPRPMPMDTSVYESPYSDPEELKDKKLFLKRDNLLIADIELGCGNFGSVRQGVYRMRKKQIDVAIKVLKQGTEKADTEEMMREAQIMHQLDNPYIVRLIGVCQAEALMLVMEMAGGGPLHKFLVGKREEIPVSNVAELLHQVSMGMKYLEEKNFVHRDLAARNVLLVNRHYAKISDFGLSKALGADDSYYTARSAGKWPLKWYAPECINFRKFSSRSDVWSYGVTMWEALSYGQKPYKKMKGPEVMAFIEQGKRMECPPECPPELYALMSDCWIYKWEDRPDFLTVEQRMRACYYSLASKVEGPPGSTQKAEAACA
The conditions noted are these: n=1, read-out: Percent inhibition, ZAP70.

The target of the next assay is T7, STK33 (Homo sapiens, UniProt Q9BYT3).
T7 construct: purchased DiscoverX (KINOMEscan)
The note with it: n=1, read-out: Percent inhibition, STK33.

The target in a further assay is T8, PIM1 (Homo sapiens, UniProt P11309).
T8 construct: purchased DiscoverX (KINOMEscan)
The note with it: n=1, read-out: Percent inhibition, PIM1.

A further assay concerns the target T9, RAF1 (Homo sapiens, UniProt P04049).
T9 construct: purchased DiscoverX (KINOMEscan)
The note with it: n=1, read-out: Percent inhibition, RAF1.

Another assay concerns the target T10, SLK (Homo sapiens, UniProt Q9H2G2).
T10 construct: purchased DiscoverX (KINOMEscan)
The note with it: n=1, read-out: Percent inhibition, SLK.

The target of the next assay is T11, PLK4 (Homo sapiens, UniProt O00444).
T11 construct: purchased DiscoverX (KINOMEscan)
T11 sequence (O00444 1-970): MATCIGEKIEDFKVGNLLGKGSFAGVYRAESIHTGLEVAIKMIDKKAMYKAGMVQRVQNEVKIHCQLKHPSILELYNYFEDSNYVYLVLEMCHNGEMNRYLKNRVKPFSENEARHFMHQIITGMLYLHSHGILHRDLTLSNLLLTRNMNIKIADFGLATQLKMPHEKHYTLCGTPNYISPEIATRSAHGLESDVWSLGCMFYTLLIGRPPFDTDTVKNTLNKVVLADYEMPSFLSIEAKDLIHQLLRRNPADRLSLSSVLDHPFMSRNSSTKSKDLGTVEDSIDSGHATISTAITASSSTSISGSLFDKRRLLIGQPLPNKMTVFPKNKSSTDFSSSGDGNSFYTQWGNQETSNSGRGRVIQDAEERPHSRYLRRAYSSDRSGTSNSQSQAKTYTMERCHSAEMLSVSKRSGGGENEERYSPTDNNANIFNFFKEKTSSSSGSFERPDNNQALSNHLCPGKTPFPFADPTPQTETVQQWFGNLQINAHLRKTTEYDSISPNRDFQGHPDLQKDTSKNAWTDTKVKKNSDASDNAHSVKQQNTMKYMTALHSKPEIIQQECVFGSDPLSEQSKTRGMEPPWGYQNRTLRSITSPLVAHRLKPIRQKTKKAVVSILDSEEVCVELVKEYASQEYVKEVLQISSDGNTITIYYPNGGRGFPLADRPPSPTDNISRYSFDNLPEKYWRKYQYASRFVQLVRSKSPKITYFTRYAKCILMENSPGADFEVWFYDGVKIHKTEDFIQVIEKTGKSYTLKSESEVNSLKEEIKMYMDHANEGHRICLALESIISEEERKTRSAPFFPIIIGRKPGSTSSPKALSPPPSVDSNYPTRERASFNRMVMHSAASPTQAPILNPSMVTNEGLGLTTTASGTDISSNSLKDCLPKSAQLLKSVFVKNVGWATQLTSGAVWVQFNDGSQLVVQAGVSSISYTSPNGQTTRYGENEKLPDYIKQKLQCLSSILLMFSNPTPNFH
The conditions noted are these: n=1, read-out: Percent inhibition, PLK4.

The target in another assay is T12, SRPK1 (Homo sapiens, UniProt Q96SB4).
T12 construct: purchased DiscoverX (KINOMEscan)
The conditions noted are these: n=1, read-out: Percent inhibition, SRPK1.

Another assay has as its target T13, TRKC (Homo sapiens, UniProt Q16288).
T13 construct: purchased DiscoverX (KINOMEscan)
The conditions noted are these: n=1, read-out: Percent inhibition, TRKC.

Take `Nc1ncc2c(-c3ccncc3)c[nH]c2n1` [Compound 11]: the inhibition at 10 µM at SRC stood at 93.3%; at TNK2, 0%; on PAK6, 0%; on PLK3, 0%; on TXK, 0%; on ZAP70, 0%. In addition, the inhibition at 10 µM came out at 0% at STK33; 0% on PIM1; 0% at RAF1; 75.5% at SLK; 84.4% at PLK4; 0% at SRPK1. Further, at TRKC, the inhibition at 10 µM worked out at 0%.

As to `COc1cc(Nc2nccc(-c3sc(N)nc3-c3cccc(NC(=O)c4c(F)cccc4F)c3)n2)cc(OC)c1OC` [Compound 7], the inhibition at 10 µM at SRC was found to be 100%; on TNK2, 100%; at PAK6, 65%; on PLK3, 99.8%; on TXK it was 90.4%; at ZAP70, 0%. In addition, the inhibition at 10 µM on STK33 amounted to 0%; on PIM1, 0%; on RAF1, 100%; at SLK, 99.8%; on PLK4, 99.8%; on SRPK1, 0%. The inhibition at 10 µM at TRKC is 0%.
